Counter-ions that a name gives are not always drawn.
Target: T1, AR (Homo sapiens, UniProt P10275)
T1 construct: endogenous in cells; host or cells: VCaP cells
T1 sequence (P10275 1-920): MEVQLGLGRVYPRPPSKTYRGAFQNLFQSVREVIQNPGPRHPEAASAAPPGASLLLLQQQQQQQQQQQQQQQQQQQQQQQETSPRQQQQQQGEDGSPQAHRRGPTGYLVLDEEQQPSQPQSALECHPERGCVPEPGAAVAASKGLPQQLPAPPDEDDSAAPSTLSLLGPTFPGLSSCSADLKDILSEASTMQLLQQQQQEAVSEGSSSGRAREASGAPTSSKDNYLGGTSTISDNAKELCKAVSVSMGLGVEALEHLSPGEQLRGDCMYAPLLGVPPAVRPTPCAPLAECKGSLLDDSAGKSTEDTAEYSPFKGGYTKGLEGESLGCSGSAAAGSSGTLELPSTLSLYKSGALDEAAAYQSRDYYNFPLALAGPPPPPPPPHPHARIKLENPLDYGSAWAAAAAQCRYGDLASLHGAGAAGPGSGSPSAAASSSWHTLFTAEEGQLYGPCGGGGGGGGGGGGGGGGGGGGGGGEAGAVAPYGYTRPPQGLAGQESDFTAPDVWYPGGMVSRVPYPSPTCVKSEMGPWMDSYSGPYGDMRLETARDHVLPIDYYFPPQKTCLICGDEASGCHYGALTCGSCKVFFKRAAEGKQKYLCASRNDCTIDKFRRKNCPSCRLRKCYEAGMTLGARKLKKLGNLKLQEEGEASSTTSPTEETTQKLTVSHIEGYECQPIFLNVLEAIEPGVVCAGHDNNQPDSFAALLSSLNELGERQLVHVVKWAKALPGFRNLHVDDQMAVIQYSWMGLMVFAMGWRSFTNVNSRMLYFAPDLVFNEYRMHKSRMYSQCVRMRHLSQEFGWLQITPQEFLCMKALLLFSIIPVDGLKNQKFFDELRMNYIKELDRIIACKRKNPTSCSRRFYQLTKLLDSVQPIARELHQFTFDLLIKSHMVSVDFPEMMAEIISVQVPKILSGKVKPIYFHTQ
Experiment: VCAP AR Degradation Assay
Type: cell-based
Settings: for Y (AR degradation efficiency, % of DMSO control): class symbols *; for DC50: class symbols A-C, read-out: DC50
How it was run: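 Compounds were plated as 10-point 1:3 series reaching 5 μM final, then VCaP cells were seeded onto them and incubated 24 h at 37 °C. Cells were lysed cold, and total AR was measured by sandwich ELISA relative to 0.1% DMSO wells.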

| Structure (SMILES) | Y (AR degradation efficiency, % of DMSO control) | DC50 |
| --- | --- | --- |
| CCc1cc(N2C(=S)N(c3ccc(C#N)c(C(F)(F)F)c3)C(=O)C2(C)C)ccc1OCCN1CCN(C(C)(C)C(=O)Nc2cc(Cl)cc(NC3CCC(=O)NC3=O)c2)CC1 (stereo not drawn) [Example 133, N-(3-chloro-5-(2,6-dioxopiperidin-3-ylamino)phenyl)-2-(4-(2-(4-(3-(4-cyano-3-(trifluoromethyl)phenyl)-5,5-dimethyl-4-oxo-2-thioxoimidazolidin-1-yl)-2-ethylphenoxy)ethyl)piperazin-1-yl)-2-methylpropanamide] | ** (25%<Y<=35%) | 100 to 500 nM |
| CC1(C)C(=O)N(c2ccc(C#N)c(C(F)(F)F)c2)C(=S)N1c1ccc(OCCN2CCN(CC(=O)Nc3cc(NC4CCC(=O)NC4=O)ccc3Cl)CC2)c(Cl)c1 (stereo not drawn) [Example 20, hydrochloride] | * (0<Y<=25%) | < 100 nM |
| CCc1cc(N2C(=S)N(c3ccc(C#N)c(C(F)(F)F)c3)C(=O)C2(C)C)ccc1OCCN1C[C@@H](C)N(CC(=O)Nc2cc(F)cc(NC3CCC(=O)NC3=O)c2)[C@@H](C)C1 (stereo partly drawn) [Example 283, 2-((2R,6S)-4-(2-(4-(3-(4-cyano-3-(trifluoromethyl)phenyl)-5,5-dimethyl-4-oxo-2-thioxoimidazolidin-1-yl)-2-ethylphenoxy)ethyl)-2,6-dimethylpiperazin-1-yl)-N-(3-(2,6-dioxopiperidin-3-ylamino)-5-fluorophenyl)acetamide] | * (0<Y<=25%) | < 100 nM |
| CC1(C)C(=O)N(c2cnc(C#N)c(C(F)(F)F)c2)C(=S)N1c1ccc(OCCN2CCN(CC(=O)Nc3cccc(NC4CCC(=O)NC4=O)c3)CC2)c(CCF)c1 (stereo not drawn) [Example 161, 2-(4-(2-(4-(3-(6-cyano-5-(trifluoromethyl)pyridin-3-yl)-5,5-dimethyl-4-oxo-2-thioxoimidazolidin-1-yl)-2-(2-fluoroethyl)phenoxy)ethyl)piperazin-1-yl)-N-(3-(2,6-dioxopiperidin-3-ylamino)phenyl)acetamide] | * (0<Y<=25%) | < 100 nM |
| CC(F)(F)c1cc(N2C(=S)N(c3ccc(C#N)c(C(F)(F)F)c3)C(=O)C2(C)C)ccc1OCCN1CCN(CC(=O)Nc2cc(Cl)cc(NC3CCC(=O)NC3=O)c2)CC1 (stereo not drawn) [Example 157, N-(3-chloro-5-(2,6-dioxopiperidin-3-ylamino)phenyl)-2-(4-(2-(4-(3-(4-cyano-3-(trifluoromethyl)phenyl)-5,5-dimethyl-4-oxo-2-thioxoimidazolidin-1-yl)-2-(1,1-difluoroethyl)phenoxy)ethyl)piperazin-1-yl)acetamide] | * (0<Y<=25%) | < 100 nM |
| CCc1cc(N2C(=S)N(c3ccc(C#N)c(C(F)(F)F)c3)C(=O)C2(C)C)ccc1OCCN1C[C@@H](C)N(CC(=O)Nc2cccc(NC3CCC(=O)NC3=O)c2)C[C@@H]1C (stereo partly drawn) [Example 121, 2-((2R,5S)-4-(2-(4-(3-(4-cyano-3-(trifluoromethyl)phenyl)-5,5-dimethyl-4-oxo-2-thioxoimidazolidin-1-yl)-2-ethylphenoxy)ethyl)-2,5-dimethylpiperazin-l-yl)-N-(3-(2,6-dioxopiperidin-3-ylamino)phenyl)acetamide] | * (0<Y<=25%) | < 100 nM |
| CCc1cc(N2C(=S)N(c3ccc(C#N)c(C(F)(F)F)c3)C(=O)C2(C)C)ccc1OCCN1CCN([C@H](C)C(=O)Nc2cccc(NC3CCC(=O)NC3=O)c2)[C@H](C)C1 (stereo partly drawn) [Example 280, (2R)-2-((R)-4-(2-(4-(3-(4-cyano-3-(trifluoromethyl)phenyl)-5,5-dimethyl-4-oxo-2-thioxoimidazolidin-1-yl)-2-ethylphenoxy)ethyl)-2-methylpiperazin-1-yl)-N-(3-(2,6-dioxopiperidin-3-ylamino)phenyl)propanamide] | *** (35%<Y<50%) | 100 to 500 nM |
| C[C@@H]1CN(CCOc2ccc(N3C(=S)N(c4ccc(C#N)c(C(F)(F)F)c4)C(=O)C34CCC4)cc2C2CC2)C[C@H](C)N1CC(=O)Nc1cccc(NC2CCC(=O)NC2=O)c1 (stereo partly drawn) [Example 225, 2-((2R,6S)-4-(2-(4-(7-(4-cyano-3-(trifluoromethyl)phenyl)-8-oxo-6-thioxo-5,7-diazaspiro[3.4]octan-5-yl)-2-cyclopropylphenoxy)ethyl)-2,6-dimethylpiperazin-1-yl)-N-(3-(2,6-dioxopiperidin-3-ylamino)phenyl)acetamide] | * (0<Y<=25%) | < 100 nM |
| CCc1cc(N2C(=S)N(c3cnc(C#N)c(C(F)(F)F)c3)C(=O)C2(C)C)ccc1OCCN1CCN(CC(=O)Nc2cc(F)cc(NC3CCC(=O)NC3=O)c2)CC1 (stereo not drawn) [Example 63, 2-(4-(2-(4-(3-(6-cyano-5-(trifluoromethyl)pyridin-3-yl)-5,5-dimethyl-4-oxo-2-thioxoimidazolidin-1-yl)-2-ethylphenoxy)ethyl)piperazin-1-yl)-N-(3-(2,6-dioxopiperidin-3-ylamino)-5-fluorophenyl)acetamide] | * (0<Y<=25%) | < 100 nM |
| CCc1cc(N2C(=S)N(c3cnc(C#N)c(C(F)(F)F)c3)C(=O)C2(C)C)ccc1OCCN1C[C@H]2C[C@@H]1CN2CC(=O)Nc1cc(Cl)cc(NC2CCC(=O)NC2=O)c1 (stereo partly drawn) [Example 120, N-(3-chloro-5-(2,6-dioxopiperidin-3-ylamino)phenyl)-2-((1R,4R)-5-(2-(4-(3-(6-cyano-5-(trifluoromethyl)pyridin-3-yl)-5,5-dimethyl-4-oxo-2-thioxoimidazolidin-1-yl)-2-ethylphenoxy)ethyl)-2,5-diazabicyclo[2.2.1]heptan-2-yl)acetamide] | ** (25%<Y<=35%) | 100 to 500 nM |
| CC(F)(F)c1cc(N2C(=S)N(c3cnc(C#N)c(C(F)(F)F)c3)C(=O)C2(C)C)ccc1OCCN1CCN(CC(=O)Nc2cccc(NC3CCC(=O)NC3=O)c2)CC1 (stereo not drawn) [Example 60, 2-(4-(2-(4-(3-(6-cyano-5-(trifluoromethyl)pyridin-3-yl)-5,5-dimethyl-4-oxo-2-thioxoimidazolidin-1-yl)-2-(1,1-difluoroethyl)phenoxy)ethyl)piperazin-1-yl)-N-(3-(2,6-dioxopiperidin-3-ylamino)phenyl)acetamide] | * (0<Y<=25%) | < 100 nM |
| CCc1cc(N2C(=S)N(c3cnc(C#N)c(C(F)(F)F)c3)C(=O)C2(C)C)ccc1OCCN1CCN([C@H](C)C(=O)Nc2cc(Cl)cc(NC3CCC(=O)NC3=O)c2)CC1 (stereo partly drawn) [Example 191, (2R)-N-(3-chloro-5-(2,6-dioxopiperidin-3-ylamino)phenyl)-2-(4-(2-(4-(3-(6-cyano-5-(trifluoromethyl)pyridin-3-yl)-5,5-dimethyl-4-oxo-2-thioxoimidazolidin-1-yl)-2-ethylphenoxy)ethyl)piperazin-1-yl)propanamide] | * (0<Y<=25%) | < 100 nM |
| CC1(C)C(=O)N(c2ccc(C#N)c(C(F)(F)F)c2)C(=S)N1c1ccc(OCCN2CCN(CC(=O)Nc3cc(Cl)cc(NC4CCC(=O)NC4=O)c3)CC2)c(CC(F)F)c1 (stereo not drawn) [Example 159, N-(3-chloro-5-(2,6-dioxopiperidin-3-ylamino)phenyl)-2-(4-(2-(4-(3-(4-cyano-3-(trifluoromethyl)phenyl)-5,5-dimethyl-4-oxo-2-thioxoimidazolidin-1-yl)-2-(2,2-difluoroethyl)phenoxy)ethyl)piperazin-1-yl)acetamide] | * (0<Y<=25%) | < 100 nM |
| CC(C)c1cc(N2C(=S)N(c3ccc(C#N)c(C(F)(F)F)c3)C(=O)C2(C)C)ccc1OCCN1CCN(C2(C(=O)Nc3cccc(NC4CCC(=O)NC4=O)c3)CC2)CC1 (stereo not drawn) [Example 197] | *** (35%<Y<50%) | 100 to 500 nM |
| C[C@@H]1CN(CCOc2ccc(N3C(=S)N(c4ccc(C#N)c(C(F)(F)F)c4)C(=O)C3(C)C)cc2CC(F)F)CCN1CC(=O)Nc1cccc(NC2CCC(=O)NC2=O)c1 (stereo partly drawn) [Example 153, 2-((R)-4-(2-(4-(3-(4-cyano-3-(trifluoromethyl)phenyl)-5,5-dimethyl-4-oxo-2-thioxoimidazolidin-1-yl)-2-(2,2-difluoroethyl)phenoxy)ethyl)-2-methylpiperazin-1-yl)-N-(3-(2,6-dioxopiperidin-3-ylamino)phenyl)acetamide] | * (0<Y<=25%) | < 100 nM |

From patent US12404241B2 (Celgene Corporation, priority 2018, dated 2025)
